Assay results taken from US8030493B2, “Monovalent and divalent salts of N-(5-hydroxynicotinoil) -L-glutamic acid exhibiting psychotropic (antidepressant and anxiolytic), neuroprotective, geroprotective and cerebroprotective action” (Obschestvo S Ogranichennoy Otvetstvennostyu “Natsionalnaya …, priority 2006, dated 2011).
Several values for one entry are separate records, joined by “and”; a condition that tells them apart may be missing. Equal entries are not always repeated. Marks after values point to notes of the source that are not given here.

Legend:
[1] = test system: rats with hemorrhagic stroke; test: Intracerebral posttraumatic hematoma (hemorrhagic stroke): survival; type: in vivo; conditions: 20 mg/kg single dose intraperitoneally 3-3.5 hours after surgery
Text: (§1) White nondescript male rats with body weight 200-250 g, which lived in vivarium and had feed (standard palletized feed) and water ad libitum, with natural alternation of day and night, were used in the experiments. Hemorrhagic stroke (local cerebral hemorrhage) was simulated according to method by A. N. Makarenko et al. (Method of local hemorrhage simulation I various structures of the brain in experimental animals. Journal Visshei Nervnoy Deyatelnosti—Journal of Higher Nervous Activities, 2002, v. 52, No 6, p. 765-768). In nembutal-anesthetized rats (40 mg/kg, i.m.) destruction of the brain tissue in capsule interna area was made with the use of special device (mandarin-knife) followed by application of blood (0.02-0.03 ml) taken from under the rat's tongue to the damaged area (within 2-3 minutes). False-operated animals underwent scalping and craniotomy. The animals were divided into 5 groups: intact rats, false-operated rats, animals with hemorrhagic stroke received nooglutyl at 20 mg/kg, and animals with hemorrhagic stroke received Compound I at 20 mg/kg. Effects were recorded within 24 hours and 14 days after the surgery. Learning ability and memory of the rats was examined in the model of passive avoidance response (PAR, Passive Avoidance supplied by Lafayette Instrument Co., USA). To determine neurological deficit in the animals Stroke-index McGrow scale modified by I. V. Gannushkina (Functional architectonics of the brain, Moscow, Medicina, 1977, 224 p.) was used. The severity of the condition was determined by the sum of the points. The number of rats with mild symptoms up to 2.5 points of Stroke-index scale (apathy, weakness of the extremities, unilateral semiptosis, tremor, circus movements) and severe manifestations of neurological disorders (3 to 10 points)—paresis of the extremities, palsy of low extremities, lateral position. The animals received single dose of nooglutyl and Compound I at the same dose 20 mg/kg intraperitoneally within 3-3.5 hours after the surgery. Controlled animals were treated with saline. At onset of the experiment each group comprised 15-20 animals. Mortality of the rats was recorded throughout the observation period (14 days). Statistical analysis was made using parametrical and non-parametrical methods and Biostat software. Nimodipin administered at 01.mg/kg according to above scheme was considered as a standard.

[2] = test system: mice exposed to hypoxia in hermovolume; test: Hypoxia with hypercapnia in hermovolume; type: in vivo
Method: White nondescript male mice with body weight 22-28 g were used in the experiments. Each dose level was studied in 10 animals. Control animals received equivalent volume of distilled water. Nooglutyl was used as reference agent. Study compounds were administered intraperitoneally 40 minutes before the experiment.
Acute hypobaric hypoxia was simulated in flow-exhaust chamber. Pressure was measured with altimeter, and elevation speed with variometer. The animals were “elevated” at the speed 20 m/s to the stage at 11000 m. The exposure lasted 10 minutes. Then the animals were mover down to the baseline level for 5 minutes. Hypoxia with hypercapnia in hermovolume was created by placement of the animal into 200 ml hermetically sealed glass vessels. Life period of the animals under hypoxic conditions was recorded. Each group comprised 10 animals.

aged rats (24 months) [3] = test: Motor coordination of aged rats on rotating rod; type: in vivo; conditions: for Number of the animals (%), which obtained the skill, By attempt 5 / Number of the animals (%), which obtained the skill, By attempt 15 / Number of the animals (%), which obtained the skill, By attempt 10: aged rats 24 months, 20 mg/kg 60 days, rotating rod 2 minutes; for Number of the animals (%), which obtained the skill, By attempt 10: 20 mg/kg; for Number of attempts required for learning to 50% of the animals: aged rats treated for 2 months, untreated aged animals 17th attempt
Method: (§2) White nondescript male rats (Wistar line): to adult animals at age 3 months with body weight 250-300 g and aged 24 month old animals with body weight 350-450 g were used in the study. Nooglutyl at dose level 20 mg/kg and Compound I were administered to aged rats intraperitoneally for 2 months followed by assessment of the effect on learning capacity impaired by age and neurological deficit. Analysis of variance with Student's test, variant portion method and U-test were employed for data processing.
To assess neurological deficit in aged animals (disturbed coordination and capacity for learning motor responses) the rats were placed on the rotating rod. The number of attempts required to obtain the skill of holding on the rotating rod for 2 minutes was registered. […] Under similar conditions only 25% of aged rats obtained this skill starting from the 11th-14th attempt. […] 60% of aged rats treated with nooglutyl and 66% of aged rats treated with Compound I for 2 months learned the skill by the 10th attempt.

aged rats (24 months) [4] = test: Passive avoidance response in aged rats (24 months); type: in vivo; conditions: 20 mg/kg 60 days, PAR reproduction 24 hours after learning; for Number of the rats, which did not entry dark chamber (%): 20 mg/kg
Method: as §2
Impact of Compound I on memory disorders in aged animals. To develop passive avoidance response (PAR) in rats the unit supplied by Lafayette Instrument Co., (USA) (Ader et al. Retention of a passive avoidance response as a function of the intensity and duration of electric shock. Psycho Sci. 1972, v. 26, p. 125-128; Voronina T. A. et al. “Textbook for Experimental (Preclinical Study) of novel pharmacological compounds”. Moscow, Medicina. 2005, p. 253-263 and 308-320) was used. […] Animals preferring illuminated platform were not used in this experiment. In the dark chamber the animal received single pain stimulus with electric current (0.45 mA), duration of the stimulus was determined from the running out of the animal from the dark chamber.

[5] = test system: rats with hemorrhagic stroke; test: Hemorrhagic stroke: neurological deficit (Stroke-index McGrow scale); type: in vivo; conditions: for Number of animals with neurological symptoms, %: Circus movements / Number of animals with neurological symptoms, %: Palsy of 1-4 extremities / Number of animals with neurological symptoms, %: Paresis of 1-4 extremities / Number of animals with neurological symptoms, %: Weakness of extremities: 20 mg/kg single dose intraperitoneally; for Rats with severe neurological symptoms: control with hemorrhagic stroke 60%
Text: as §1

in vivo = conditions: male, white nondescript (outbred), mouse, ip
Method: The study of acute daily toxicity of Compound I was carried out on white nondescript male mice with body weight 25-28 g, which lived in habitual conditions in vivarium and received feed and water ad libitum. Single dose of Compound I was administered intraperitoneally. The animals were under observation for 2 days after the dosing. The dose levels of Compound I used in the toxicity study were as follows: 800 mg/kg, 1000 mg/kg, 1200 mg/kg, 1500 mg/kg, 1600 mg/kg. Compound I was dissolved in distilled water and administered in 0, 1 ml per 10 g of the body weight of the animal when the doses 800 mg/kg and 1000 mg/kg, and in 0.2 ml per 10 g of the body weight when the doses 1200 mg/kg, 1500 mg/kg, 1600 mg/kg were used. Control animals received distilled water in the volume 0.2 ml per 10 g of the body weight.
Each dose group comprised 10 animals.

[6] = 30 mg/kg intraperitoneally 40 minutes before the experiment
[7] = 60 mg/kg intraperitoneally 40 minutes before the experiment
[8] = 120 mg/kg intraperitoneally 40 minutes before the experiment

| SMILES | Number of animals which died in relation to total number of operated animals, absolute, Day 1 after surgery [1] | Number of animals which died in relation to total number of operated animals, absolute, Day 3 after surgery [1] | Number of animals which died in relation to total number of operated animals, absolute, Day 7 after surgery [1] | Number of animals which died in relation to total number of operated animals, absolute, Day 14 after surgery [1] | Number of animals which died, %, Day 1 after surgery [1] [%] | Number of animals which died, %, Day 3 after surgery [1] | Number of animals which died, %, Day 7 after surgery [1] | Number of animals which died, %, Day 14 after surgery [1] [%] | Life interval of mice (minutes) exposed to hypoxia in hermovolume [2, 6] [min] | Life interval of mice (minutes) exposed to hypoxia in hermovolume [2, 7] [min] | Life interval of mice (minutes) exposed to hypoxia in hermovolume [2, 8] [min] | Number of the animals (%), which obtained the skill, By attempt 5 (aged rats (24 months) [3]) [%] | Number of the animals (%), which obtained the skill, By attempt 15 (aged rats (24 months) [3]) | Number of the animals (%), which obtained the skill, By attempt 10 (aged rats (24 months) [3]) | Number of attempts required for learning to 50% of the animals (aged rats (24 months) [3]) [attempt] | Latent period of entry to dark chamber (c) (aged rats (24 months) [4]) | Number of the rats, which did not entry dark chamber (%) (aged rats (24 months) [4]) | Number of animals with neurological symptoms, %: Circus movements ([5]; Day 1) [%] | Number of animals with neurological symptoms, %: Palsy of 1-4 extremities ([5]; Day 1) [%] | Number of animals with neurological symptoms, %: Paresis of 1-4 extremities ([5]; Day 1) [%] | further results |
| --- | --- | --- | --- | --- | --- | --- | --- | --- | --- | --- | --- | --- | --- | --- | --- | --- | --- | --- | --- | --- | --- |
| O=C([O-])CC[C@H](NC(=O)c1cncc(O)c1)C(=O)[O-].[Ca+2] [Compound I, Calcium N-(5-hydroxynicotinoyl)-L-glutamate] | 1 of 20 | 2 of 20 | 2 of 20 | 2 of 20 | 5 | 10## % | 10## % | 10 | 16.2 ± 0.31 | 17.8 ± 0.41 | 18.1 ± 0.48 | 20 | 66# % | 66% and 60# % | 6 | 96.9 ± 16.1 | 60 | 10 | 0 | 10 | Number of animals which died, %, Day 14 after surgery ([1]; listed as compound I): 10## %; Number of animals with neurological symptoms, %: Weakness of extremities ([5]; Day 1): 20* %; Number of animals with neurological symptoms, %: Circus movements ([5]; Day 14): 10%; Number of animals with neurological symptoms, %: Palsy of 1-4 extremities ([5]; Day 14): 0%; Number of animals with neurological symptoms, %: Paresis of 1-4 extremities ([5]; Day 14): 5* %; Number of animals with neurological symptoms, %: Weakness of extremities ([5]; Day 14): 0%; Rats with severe neurological symptoms ([5]; Day 14): 15%; LD50 at 2 days (in vivo): 1150 mg/kg |
| O=C(O)CC[C@H](NC(=O)c1cncc(O)c1)C(=O)O [Nooglutyl, N-(5-hydroxynicotinoyl)-L-glutamic acid, reference compound] | 3 of 20 | 4 of 20 | 4 of 20 | 4 of 20 | 15 | 20# % | 20# % | 20 | 13.9 ± 0.42 | 15.2 ± 0.39 | 16.4 ± 0.53 | 20 | 60# % | 60# % | 7 | 97.1 ± 20.3 | 60 | 5 | 0 | 25 | Number of animals which died, %, Day 14 after surgery ([1]; listed as nooglutyl): 20## %; Number of the animals (%), which obtained the skill, By attempt 10 (aged rats (24 months) [3]; listed as nooglutyl): 60%; Number of animals with neurological symptoms, %: Weakness of extremities ([5]; Day 1): 30* %; Number of animals with neurological symptoms, %: Circus movements ([5]; Day 14): 0%; Number of animals with neurological symptoms, %: Palsy of 1-4 extremities ([5]; Day 14): 0%; Number of animals with neurological symptoms, %: Paresis of 1-4 extremities ([5]; Day 14): 20* %; Number of animals with neurological symptoms, %: Weakness of extremities ([5]; Day 14): 10%; Rats with severe neurological symptoms ([5]; Day 14): 25%; LD50 at 2 days (in vivo): 1200 mg/kg |
